Test results as given in PubChem BioAssay AID1398 (The Scripps Research Institute Molecular Screening Center, 2008).
Activity calls are given as the source filed them. How the calls were made is not given here.

Biological target: Signal transducer and activator of transcription 3 (Homo sapiens) (UniProt P40763)
Experiment: STAT3 activation reporter response, dose response, cell-based (AID 1398)

## COc1ccc(CN2CCN(S(=O)(=O)c3ccc(C)cc3)CC2)cc1Br
  IC50: 6.13 µM

## O=C(Nc1ccccc1O)c1csc2c1CCCC2
  IC50: 2.44 µM

## CN(C)C(CN1C(=O)C2CC=CCC2C1=O)c1cn(C)c2ccccc12 (stereo not drawn)
  IC50: > 55.7 µM (inactive)

## Nc1nnc(Cc2c[nH]c3ccccc23)s1
  IC50: > 55.7 µM (inactive)

## CCCc1nnc(N2C(=O)c3cccc4cccc(c34)C2=O)s1
  IC50: > 55.7 µM (inactive)

## O=C(CCN1CCOCC1)N1CCc2c([nH]c3ccccc23)C1c1cccc(Cl)c1 (stereo not drawn)
  IC50: 7.41 µM

## CC1=NN(c2ccccc2)C(=O)/C1=C/c1c(O)[nH]c(=O)[nH]c1=O
  IC50: > 55.7 µM (inactive)

## COc1cc(NC(=O)c2cc(-c3ccco3)on2)c(OC)cc1Cl
  IC50: 1.71 µM

## COc1ccccc1C(=O)NNC(=O)c1ccc(NC(=O)C(C)C)cc1
  IC50: 1.3 µM

## COc1ccc(Cl)cc1-c1nc(-c2ccc(Br)o2)no1
  IC50: 8.51 µM

## Cc1c(C(=O)NCc2cccnc2)oc2ccc(S(=O)(=O)N3CC(C)CC(C)C3)cc12 (stereo not drawn)
  IC50: > 55.7 µM (inactive)

## Cc1cccc2c1NC(=O)/C2=C\C(=O)c1cccs1
  IC50: > 18.6 µM (inactive)

## CC(=O)n1cc(Nc2ccc([N+](=O)[O-])cc2)c2ccccc21
  IC50: > 55.7 µM (inactive)

## CC1=C(C)C(=O)C(N2CCOCC2)=CC1=O
  IC50: inactive

## CN1CCN(C(=O)CNc2ccc(C(F)(F)F)cc2[N+](=O)[O-])CC1
  IC50: 3.56 µM

## CCOC(=O)CC1C(=O)NCCN1C(=O)c1cc2c(=O)n3cccc(C)c3nc2s1 (stereo not drawn)
  IC50: > 55.7 µM (inactive)

## O=C(COc1ccccc1Cl)Nc1cc(Cl)ccc1O
  IC50: 0.571 µM

## O=C(O)C1CC=CCC1C(=O)Nc1ccc(S(=O)(=O)N2CCCc3ccccc32)cc1 (stereo not drawn)
  IC50: 5.67 µM

## Cc1nc(/N=C(\N)Nc2ccccc2)nc2ccccc12
  IC50: 2.11 µM

## CCOC(=O)c1sc(NCc2ccco2)c(-c2nc3ccccc3s2)c1N
  IC50: 9.76 µM

## CC(=O)N1N=C(c2ccccc2O)OC1(C)CC(=O)Nc1ccccc1 (stereo not drawn)
  IC50: > 55.7 µM (inactive)

## CC(=O)NCCC(=O)N1CCc2c([nH]c3ccccc23)C1c1cccc(C)c1 (stereo not drawn)
  IC50: 2.5 µM

## COCCNC(=O)c1cc2c(-c3ccc(Cl)cc3)nn(C)c2s1
  IC50: > 55.7 µM (inactive)

## COc1ccc(-c2nnc(Nc3nc4c(OC)cccc4s3)o2)cc1
  IC50: > 55.7 µM (inactive)

## CCC(=O)NCCSc1c[nH]c2ccccc12
  IC50: inactive

## O=C(Nc1nnc(-c2ccccc2Cl)o1)c1nc2ccccc2s1
  IC50: > 55.7 µM (inactive)

## CCCNC(=O)Cn1c2ccccc2c2nc(=O)cc(C)n21
  IC50: 3.33 µM

## COCCNC(=O)C(=O)NNC(=O)c1ccccc1OC
  IC50: inactive

## c1ccc2c(c1)CCCN2c1nc2ccccc2n2cnnc12
  IC50: 1.36 µM

## CN(Cc1ccccc1)Cc1c[nH]c2ccccc12
  IC50: > 55.7 µM (inactive)

## CC(C)CC1c2[nH]c3ccccc3c2CCN1C(=O)CCC(=O)N(C)C (stereo not drawn)
  IC50: > 6.19 µM (inactive)

## CCOc1ccc(CN2CCN(Cc3cc4ccccc4[nH]3)CC2CCO)cc1 (stereo not drawn)
  IC50: 0.644 µM

## COc1ccc(C2c3[nH]c4ccccc4c3CCN2C(=O)c2ccc(=O)n(C)n2)c(F)c1 (stereo not drawn)
  IC50: 2.44 µM

## CCOc1ccccc1C1CC(c2cccs2)=NN1S(C)(=O)=O (stereo not drawn)
  IC50: > 55.7 µM (inactive)

## COc1ccc(C)cc1NC(=O)c1[nH]c(C)c(C(C)=O)c1C
  IC50: inactive

## COCc1cc(C)nc2sc(C(=O)NN)c(-n3cccc3)c12
  IC50: inactive

## CCOc1cc(-c2ccc(N)c(OCC)c2)ccc1N
  IC50: > 55.7 µM (inactive)

## CN(C)C(=O)COC(=O)/C=C/c1ccccc1[N+](=O)[O-]
  IC50: 7.75 µM

## Cc1cc(C)n(-c2nnc3n2N=C(c2c[nH]c4ccccc24)CS3)n1
  IC50: inactive

## Cc1nc2c(n1C1CCCCC1)C(=O)c1ccccc1C2=O
  IC50: 5.8 µM

## Cc1nnc(NC(=O)c2oc3c(ccc4ccccc43)c2C)s1
  IC50: > 0.619 µM (inactive)

## CC1Cc2ccccc2N1Cc1cc(=O)n2ccsc2n1 (stereo not drawn)
  IC50: inactive

## Cn1nc(-c2ccc(Cl)cc2)c2cc(C(=O)NCCCN3CCOCC3)sc21
  IC50: inactive

## COCCCNC(=O)c1cc2c(-c3ccc(Cl)cc3)nn(C)c2s1
  IC50: > 55.7 µM (inactive)

## COc1ccc(-c2nc3scc(-c4ccccc4)n3n2)cc1
  IC50: 5.79 µM

## O=C(CCCSc1nc2ccccc2s1)NCc1ccco1
  IC50: inactive

## O=C(O)C(Cc1c[nH]c2ccccc12)N1Cc2ccccc2C1=O (stereo not drawn)
  IC50: inactive

## COCc1cc(=O)n2c(-c3ccccc3OC)n[nH]c2n1
  IC50: 0.821 µM

## O=C(c1cc[n+]([O-])cc1)N1CCc2c([nH]c3ccccc23)C1c1ccccc1Cl (stereo not drawn)
  IC50: 8.29 µM

## CCN(CC)S(=O)(=O)c1ccc(-c2nnc3sc4cccc(C)c4n23)cc1
  IC50: > 55.7 µM (inactive)

## O=C(Cc1cnc2ncnn2c1)N1CCc2c([nH]c3ccccc23)C1c1ccccc1F (stereo not drawn)
  IC50: inactive

## CCN1CCN(C(=O)c2cc3c(-c4ccc(Cl)cc4)nn(C)c3s2)CC1
  IC50: > 55.7 µM (inactive)

## CC(OC(=O)c1cccnc1SCc1cc(=O)n2ccccc2n1)c1ccccn1 (stereo not drawn)
  IC50: > 6.19 µM (inactive)
